Data taken from PMC5012888, “Structure-based identification and characterisation of structurally novel human P2X7 receptor antagonists” (Biochemical Pharmacology, 2016).

Columns and labels:
hP2X7R [1] = biological target: T1, hP2X7R (Homo sapiens, UniProt Q99572); conditions: known hP2X7R antagonists; cited from earlier work
T1 construct: expressed in transfected cells
T1 sequence (Q99572 1-595): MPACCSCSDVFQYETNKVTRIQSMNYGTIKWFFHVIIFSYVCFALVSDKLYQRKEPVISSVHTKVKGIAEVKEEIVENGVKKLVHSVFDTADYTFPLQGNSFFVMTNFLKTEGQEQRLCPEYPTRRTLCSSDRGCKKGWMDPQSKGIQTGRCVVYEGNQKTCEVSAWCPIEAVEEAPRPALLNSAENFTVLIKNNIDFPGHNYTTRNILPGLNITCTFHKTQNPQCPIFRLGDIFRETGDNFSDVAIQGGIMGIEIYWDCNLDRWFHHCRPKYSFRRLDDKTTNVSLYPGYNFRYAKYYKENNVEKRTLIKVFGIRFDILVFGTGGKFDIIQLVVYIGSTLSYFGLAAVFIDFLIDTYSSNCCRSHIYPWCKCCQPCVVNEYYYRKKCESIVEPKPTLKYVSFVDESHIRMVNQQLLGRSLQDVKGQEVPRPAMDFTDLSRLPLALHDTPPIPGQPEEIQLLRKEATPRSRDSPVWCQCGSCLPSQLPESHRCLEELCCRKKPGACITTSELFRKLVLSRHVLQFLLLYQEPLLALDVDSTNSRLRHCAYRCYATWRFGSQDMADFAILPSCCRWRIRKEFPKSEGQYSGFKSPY

hP2X7R [2] = biological target: T1, hP2X7R; test: BzATP-induced Ca2+ responses in HEK293 cells expressing hP2X7R (FlexStation, Fura-2); assay type: cell-based; conditions: 300 μM BzATP
Excerpt: (§1) Human embryonic kidney (HEK) 293 cells stably expressing C-terminally EE-tagged human or rat P2X7R [42], [34], human P2X4R [15] and rat P2X3R [28] were generated in previous studies. A stable HEK293 cell line expressing C-terminally His-tagged human P2X7R was generated in this study and there was no difference in the experimental results using EE-tagged and His-tagged human P2X7R. These cells were maintained in Dulbecco’s Modified Eagle Medium (Life Technologies) supplemented with 10% foetal bovine serum and […] G418 in a tissue culture incubator at 37°C and 5% CO2 under humidified conditions. Cells were cultured in T25 flasks and split (every 3–4 days) once confluent.
FlexStation II and III (Molecular Devices) were used to measure intracellular Ca^2+ concentrations ([Ca^2+]i). Human or rat P2X7R-expressing HEK293 cells were plated in poly-D-lysine-coated 96-well plates (Molecular Devices) with 50,000 cells per well 24 h prior to use. […] Cells were excited at 340 nm and 380 nm alternatively and the emission at 510 nm recorded using a FlexStation. The ratio of fluorescence intensity (F340/F380) was used to indicate the [Ca^2+]i. The basal [Ca^2+]i was recorded for 60 s prior to the exposure to agonist and recording was continued for a further 120 s. […] The maximal changes in F340/F380 (ΔF340/380) were used for quantitative analysis. […]

rP2X7R = biological target: T2, rP2X7R (Rattus norvegicus, UniProt Q64663); test: BzATP-induced Ca2+ responses in HEK293 cells expressing rP2X7R (FlexStation, Fura-2); assay type: cell-based; conditions: 300 μM BzATP
T2 construct: expressed in transfected cells
T2 sequence (Q64663 1-595): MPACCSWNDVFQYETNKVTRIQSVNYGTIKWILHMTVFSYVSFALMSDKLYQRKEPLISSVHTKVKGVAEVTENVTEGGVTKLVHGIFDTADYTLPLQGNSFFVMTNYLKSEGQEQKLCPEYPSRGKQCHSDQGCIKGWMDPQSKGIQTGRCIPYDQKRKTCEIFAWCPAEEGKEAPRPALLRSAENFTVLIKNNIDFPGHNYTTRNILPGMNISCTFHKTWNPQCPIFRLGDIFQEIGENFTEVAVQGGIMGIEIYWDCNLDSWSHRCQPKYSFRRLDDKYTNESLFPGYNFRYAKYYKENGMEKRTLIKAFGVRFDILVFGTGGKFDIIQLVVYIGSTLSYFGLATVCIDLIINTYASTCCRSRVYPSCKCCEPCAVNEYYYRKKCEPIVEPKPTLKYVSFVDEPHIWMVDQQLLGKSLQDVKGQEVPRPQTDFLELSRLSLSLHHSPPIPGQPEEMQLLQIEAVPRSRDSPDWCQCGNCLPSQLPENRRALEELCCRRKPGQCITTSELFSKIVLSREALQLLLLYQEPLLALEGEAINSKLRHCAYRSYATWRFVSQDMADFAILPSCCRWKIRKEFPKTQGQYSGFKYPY
Excerpt: as §1
FlexStation II and III (Molecular Devices) were used to measure intracellular Ca^2+ concentrations ([Ca^2+]i). Human or rat P2X7R-expressing HEK293 cells were plated in poly-D-lysine-coated 96-well plates (Molecular Devices) with 50,000 cells per well 24 h prior to use. […] Cells were excited at 340 nm and 380 nm alternatively and the emission at 510 nm recorded using a FlexStation. The ratio of fluorescence intensity (F340/F380) was used to indicate the [Ca^2+]i. The basal [Ca^2+]i was recorded for 60 s prior to the exposure to agonist and recording was continued for a further 120 s. […] The maximal changes in F340/F380 (ΔF340/380) were used for quantitative analysis.

In the case of `C[S+]([O-])c1ccc(-c2nc(-c3ccncc3)c(-c3ccc(F)cc3)[nH]2)cc1` (stereo not shown) [SB203580], the “predicted energy binding score” value (hP2X7R [1]) is listed as -8.75 kcal/mol.
In the case of `CN([C@@H](Cc1ccc(OS(=O)(=O)c2cccc3cnccc23)cc1)C(=O)N1CCN(c2ccccc2)CC1)S(=O)(=O)c1cccc2cnccc12` [KN-62], the “predicted energy binding score” value (hP2X7R [1]) is listed as -5.2 kcal/mol.
With `CCOc1ccc(Nc2ccc(/C(=C3C=C/C(=[N+](/CC)Cc4cccc(S(=O)(=O)[O-])c4)C=C/3C)c3ccc(N(CC)Cc4cccc(S(=O)(=O)O)c4)cc3C)cc2)cc1` [BBG, brilliant blue G] the inhibition at 10 µM (hP2X7R [2]; HEK293, compound at 10 μM, read-out: inhibition of BzATP-induced Ca^2+ responses (hP2X7R)) was 71.5 ± 5% and the “inhibition of BzATP-induced Ca^2+ responses (rP2X7R)” value (rP2X7R; compound at 10 μM) was “strongly inhibited”.
In the case of `O=C1CSC(=O)N1C(CCc1ccncc1)COc1ccc(-c2cccc([N+](=O)[O-])c2)cc1` (stereo not shown) [AZ11645373], the “inhibition of BzATP-induced Ca^2+ responses (hP2X7R)” value (hP2X7R [2]; 200 nM AZ11645373 (Fig. 1 legend)) is listed as 81.9 ± 5%, the “inhibition of BzATP-induced Ca^2+ responses (rP2X7R)” value (rP2X7R; 200 nM AZ11645373 (Fig. 1 legend), compared with BBG) is listed as “far less effective” and the “predicted energy binding score” value (hP2X7R [1]) is listed as -10.8 kcal/mol.
